According to US8735398B2 (Bristol-Myers Squibb Company, priority 2009, dated 2014):

Test system: HCV 1b genotype
Assay: HCV replicon assay (HCV-neo replicon cells, wild-type)
Format: cell-based, Hepatitis C virus
Conditions: HCV 1b genotype replicon; class symbols; read-out: EC50 Range against HCV 1b
In short: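 HCV-neo replicon cells (wild-type) and replicon cells carrying NS5A resistance substitutions were treated with compounds; assay per O'Boyle et al. 2005, with luciferase-reporter read-out variants also used.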

| SMILES | EC50 |
| --- | --- |
| O=C(Nc1ccc(-c2cnc(-c3ccc(NC(=O)[C@@H]4C[C@@H](O)CN4C(=O)Cc4ccccn4)cc3)o2)cc1)[C@@H]1C[C@@H](O)CN1C(=O)Cc1ccccn1 [XY-58, (2S,4R,2′S,4′R)-N,N′-(1,3-oxazole-2,5-diyldi-4,1-phenylene)bis(4-hydroxy-1-(2-pyridinylacetyl)-2-pyrrolidinecarboxamide)] | 100 to 999 nM |
| CC(C)(C)O[C@@H]1C[C@@H](C(=O)Nc2ccc(-c3cnc(-c4ccc(NC(=O)[C@@H]5C[C@@H](OC(C)(C)C)CN5C(=O)Cc5ccccn5)cc4)o3)cc2)N(C(=O)Cc2ccccn2)C1 [XY-75, (2S,4R,2′S,4′R)-N,N′-(1,3-oxazole-2,5-diyldi-4,1-phenylene)bis(4-tert-butoxy-1-(2-pyridinylacetyl)-2-pyrrolidinecarboxamide)] | 4.57 to 99 nM |

Same assay, conditions: Hepatitis C virus, HCV 1b genotype replicon; class symbols; read-out: EC50 Range against HCV 1b

| SMILES | EC50 |
| --- | --- |
| O=C(Nc1ccc(-c2cnc(-c3ccc(NC(=O)[C@@H]4C[C@@H](O)CN4C(=O)c4cccs4)cc3)o2)cc1)[C@@H]1C[C@@H](O)CN1C(=O)c1cccs1 [XY-54, (2S,4R,2′S,4′R)-N,N′-(1,3-oxazole-2,5-diyldi-4,1-phenylene)bis(4-hydroxy-1-(2-thienylcarbonyl)-2-pyrrolidinecarboxamide)] | 1000 to 10000 nM |
| COc1cccc(CC(=O)N2C[C@H](O)C[C@H]2C(=O)Nc2ccc(-c3cnc(-c4ccc(NC(=O)[C@@H]5C[C@@H](O)CN5C(=O)Cc5cccc(OC)c5)cc4)o3)cc2)c1 [XY-55, (2S,4R,2′S,4′R)-N,N′-(1,3-oxazole-2,5-diyldi-4,1-phenylene)bis(4-hydroxy-1-((3-methoxyphenyl)acetyl)-2-pyrrolidinecarboxamide)] | 100 to 999 nM |
| O=C(Nc1ccc(-c2cnc(-c3ccc(NC(=O)[C@@H]4C[C@@H](O)CN4C(=O)c4ccccc4)cc3)o2)cc1)[C@@H]1C[C@@H](O)CN1C(=O)c1ccccc1 [XY-56, (2S,4R,2′S,4′R)-N,N′-(1,3-oxazole-2,5-diyldi-4,1-phenylene)bis(1-benzoyl-4-hydroxy-2-pyrrolidinecarboxamide)] | 100 to 999 nM |
| O=C(Nc1ccc(-c2cnc(-c3ccc(NC(=O)[C@@H]4C[C@@H](O)CN4C(=O)C4CC4)cc3)o2)cc1)[C@@H]1C[C@@H](O)CN1C(=O)C1CC1 [XY-57, (2S,4R,2′S,4′R)-N,N′-(1,3-oxazole-2,5-diyldi-4,1-phenylene)bis(1-(cyclopropylcarbonyl)-4-hydroxy-2-pyrrolidinecarboxamide)] | 1000 to 10000 nM |
| CC(C)(C)O[C@@H]1C[C@@H](C(=O)Nc2ccc(-c3cnc(-c4ccc(NC(=O)[C@@H]5C[C@@H](OC(C)(C)C)CN5C(=O)OCc5ccccc5)cc4)o3)cc2)N(C(=O)OCc2ccccc2)C1 [XY-59, dibenzyl (2S,4R,2′S,4′R)-2,2′-(1,3-oxazole-2,5-diylbis(4,1-phenylenecarbamoyl))bis(4-tert-butoxy-1-pyrrolidinecarboxylate)] | 1000 to 10000 nM |
| CC(C)(C)O[C@H]1CN[C@H](C(=O)Nc2ccc(-c3cnc(-c4ccc(NC(=O)[C@@H]5C[C@@H](OC(C)(C)C)CN5)cc4)o3)cc2)C1 [XY-60, (2S,4R,2′S,4′R)-N,N′-(1,3-oxazole-2,5-diyldi-4,1-phenylene)bis(4-tert-butoxy-2-pyrrolidinecarboxamide)] | 1000 to 10000 nM |
| CC(C)(C)O[C@@H]1C[C@@H](C(=O)Nc2ccc(-c3cnc(-c4ccc(NC(=O)[C@@H]5C[C@@H](OC(C)(C)C)CN5C(=O)CC5CC5)cc4)o3)cc2)N(C(=O)CC2CC2)C1 [XY-61, (2S,4R,2′S,4′R)-N,N′-(1,3-oxazole-2,5-diyldi-4,1-phenylene)bis(4-tert-butoxy-1-(cyclopropylacetyl)-2-pyrrolidinecarboxamide)] | 100 to 999 nM |
| CC(C)(C)O[C@@H]1C[C@@H](C(=O)Nc2ccc(-c3cnc(-c4ccc(NC(=O)[C@@H]5C[C@@H](OC(C)(C)C)CN5C(=O)Cc5cccnc5)cc4)o3)cc2)N(C(=O)Cc2cccnc2)C1 [XY-62, (2S,4R,2′S,4′R)-N,N′-(1,3-oxazole-2,5-diyldi-4,1-phenylene)bis(4-tert-butoxy-1-(3-pyridinylacetyl)-2-pyrrolidinecarboxamide)] | 4.57 to 99 nM |
| CC(C)(C)O[C@@H]1C[C@@H](C(=O)Nc2ccc(-c3cnc(-c4ccc(NC(=O)[C@@H]5C[C@@H](OC(C)(C)C)CN5C(=O)C(C)(C)C)cc4)o3)cc2)N(C(=O)C(C)(C)C)C1 [XY-63, (2S,4R,2′S,4′R)-N,N′-(1,3-oxazole-2,5-diyldi-4,1-phenylene)bis(4-tert-butoxy-1-(2,2-dimethylpropanoyl)-2-pyrrolidinecarboxamide)] | 100 to 999 nM |
| CC(C)(C)O[C@@H]1C[C@@H](C(=O)Nc2ccc(-c3cnc(-c4ccc(NC(=O)[C@@H]5C[C@@H](OC(C)(C)C)CN5C(=O)C5CCC5)cc4)o3)cc2)N(C(=O)C2CCC2)C1 [XY-64, (2S,4R,2′S,4′R)-N,N′-(1,3-oxazole-2,5-diyldi-4,1-phenylene)bis(4-tert-butoxy-1-(cyclobutylcarbonyl)-2-pyrrolidinecarboxamide)] | 1000 to 10000 nM |
| CCc1ccccc1C(=O)N1C[C@H](OC(C)(C)C)C[C@H]1C(=O)Nc1ccc(-c2cnc(-c3ccc(NC(=O)[C@@H]4C[C@@H](OC(C)(C)C)CN4C(=O)c4ccccc4CC)cc3)o2)cc1 [XY-65, (2S,4R,2′S,4′R)-N,N′-(1,3-oxazole-2,5-diyldi-4,1-phenylene)bis(4-tert-butoxy-1-(2-ethylbenzoyl)-2-pyrrolidinecarboxamide)] | 1000 to 10000 nM |
| CC(C)(C)O[C@@H]1C[C@@H](C(=O)Nc2ccc(-c3cnc(-c4ccc(NC(=O)[C@@H]5C[C@@H](OC(C)(C)C)CN5C(=O)C5CCCCC5)cc4)o3)cc2)N(C(=O)C2CCCCC2)C1 [XY-66, (2S,4R,2′S,4′R)-N,N′-(1,3-oxazole-2,5-diyldi-4,1-phenylene)bis(4-tert-butoxy-1-(cyclohexylcarbonyl)-2-pyrrolidinecarboxamide)] | 1000 to 10000 nM |
| COC(C(=O)N1C[C@H](OC(C)(C)C)C[C@H]1C(=O)Nc1ccc(-c2cnc(-c3ccc(NC(=O)[C@@H]4C[C@@H](OC(C)(C)C)CN4C(=O)C(OC)c4ccccc4)cc3)o2)cc1)c1ccccc1 (stereo partly drawn) [XY-67, (2S,4R,2′S,4′R)-N,N′-(1,3-oxazole-2,5-diyldi-4,1-phenylene)bis(4-tert-butoxy-1-(methoxy(phenyl)acetyl)-2-pyrrolidinecarboxamide)] | 4.57 to 99 nM |
| CC(C)(C)O[C@@H]1C[C@@H](C(=O)Nc2ccc(-c3cnc(-c4ccc(NC(=O)[C@@H]5C[C@@H](OC(C)(C)C)CN5C(=O)[C@H]5CCCO5)cc4)o3)cc2)N(C(=O)[C@H]2CCCO2)C1 [XY-68, (2S,4R,2′S,4′R)-N,N′-(1,3-oxazole-2,5-diyldi-4,1-phenylene)bis(4-tert-butoxy-1-((2R)-tetrahydro-2-furanylcarbonyl)-2-pyrrolidinecarboxamide)] | 100 to 999 nM |
| Cc1cccc(CC(=O)N2C[C@H](OC(C)(C)C)C[C@H]2C(=O)Nc2ccc(-c3cnc(-c4ccc(NC(=O)[C@@H]5C[C@@H](OC(C)(C)C)CN5C(=O)Cc5cccc(C)c5)cc4)o3)cc2)c1 [XY-69, (2S,4R,2′S,4′R)-N,N′-(1,3-oxazole-2,5-diyldi-4,1-phenylene)bis(4-tert-butoxy-1-((3-methylphenyl)acetyl)-2-pyrrolidinecarboxamide)] | 100 to 999 nM |
| Cc1cc(CC(=O)N2C[C@H](OC(C)(C)C)C[C@H]2C(=O)Nc2ccc(-c3cnc(-c4ccc(NC(=O)[C@@H]5C[C@@H](OC(C)(C)C)CN5C(=O)Cc5cc(C)no5)cc4)o3)cc2)on1 [XY-70, (2S,4R,2′S,4′R)-N,N′-(1,3-oxazole-2,5-diyldi-4,1-phenylene)bis(4-tert-butoxy-1-((3-methyl-5-isoxazolyl)acetyl)-2-pyrrolidinecarboxamide)] | 4.57 to 99 nM |
| Cn1cccc1C(=O)N1C[C@H](OC(C)(C)C)C[C@H]1C(=O)Nc1ccc(-c2cnc(-c3ccc(NC(=O)[C@@H]4C[C@@H](OC(C)(C)C)CN4C(=O)c4cccn4C)cc3)o2)cc1 [XY-71, (2S,4R,2′S,4′R)-N,N′-(1,3-oxazole-2,5-diyldi-4,1-phenylene)bis(4-tert-butoxy-1-((1-methyl-1H-pyrrol-2-yl)carbonyl)-2-pyrrolidinecarboxamide)] | 1000 to 10000 nM |
| Cc1noc(C)c1C(=O)N1C[C@H](OC(C)(C)C)C[C@H]1C(=O)Nc1ccc(-c2cnc(-c3ccc(NC(=O)[C@@H]4C[C@@H](OC(C)(C)C)CN4C(=O)c4c(C)noc4C)cc3)o2)cc1 [XY-72, (2S,4R,2′S,4′R)-N,N′-(1,3-oxazole-2,5-diyldi-4,1-phenylene)bis(4-tert-butoxy-1-((3,5-dimethyl-4-isoxazolyl)carbonyl)-2-pyrrolidinecarboxamide)] | 100 to 999 nM |
| CC(C)(C)O[C@@H]1C[C@@H](C(=O)Nc2ccc(-c3cnc(-c4ccc(NC(=O)[C@@H]5C[C@@H](OC(C)(C)C)CN5C(=O)c5ccccc5)cc4)o3)cc2)N(C(=O)c2ccccc2)C1 [XY-73, (2S,4R,2′S,4′R)-N,N′-(1,3-oxazole-2,5-diyldi-4,1-phenylene)bis(1-benzoyl-4-tert-butoxy-2-pyrrolidinecarboxamide)] | 1000 to 10000 nM |
| CC(C)(C)O[C@@H]1C[C@@H](C(=O)Nc2ccc(-c3cnc(-c4ccc(NC(=O)[C@@H]5C[C@@H](OC(C)(C)C)CN5C(=O)C5CC5)cc4)o3)cc2)N(C(=O)C2CC2)C1 [XY-74, (2S,4R,2′S,4′R)-N,N′-(1,3-oxazole-2,5-diyldi-4,1-phenylene)bis(4-tert-butoxy-1-(cyclopropylcarbonyl)-2-pyrrolidinecarboxamide)] | 100 to 999 nM |
| CC(C)(C)O[C@@H]1C[C@@H](C(=O)Nc2ccc(-c3cnc(-c4ccc(NC(=O)[C@@H]5C[C@@H](OC(C)(C)C)CN5C(=O)c5cccs5)cc4)o3)cc2)N(C(=O)c2cccs2)C1 [XY-76, (2S,4R,2′S,4′R)-N,N′-(1,3-oxazole-2,5-diyldi-4,1-phenylene)bis(4-tert-butoxy-1-(2-thienylcarbonyl)-2-pyrrolidinecarboxamide)] | 1000 to 10000 nM |
| COc1cccc(CC(=O)N2C[C@H](OC(C)(C)C)C[C@H]2C(=O)Nc2ccc(-c3cnc(-c4ccc(NC(=O)[C@@H]5C[C@@H](OC(C)(C)C)CN5C(=O)Cc5cccc(OC)c5)cc4)o3)cc2)c1 [XY-77, (2S,4R,2′S,4′R)-N,N′-(1,3-oxazole-2,5-diyldi-4,1-phenylene)bis(4-tert-butoxy-1-((3-methoxyphenyl)acetyl)-2-pyrrolidinecarboxamide)] | 100 to 999 nM |
